These results are taken from ChEMBL document CHEMBL5518174 (Eur J Med Chem, 2024).

A short description of data set [1]: Upregulation of acetylated H3 protein expression in human NCI-H1975 cells assessed as fold change at 0.1 uM incubated for 24 hrs by immunoblotting analysis (reference value: 1). The class given is functional. For orientation: A western blot detects proteins with antibodies after separation by electrophoresis.
Data set [2] is described as follows: Upregulation of acetylated H4 protein expression in human MDA-MB-231 cells assessed as fold change at 0.05 uM incubated for 24 hrs by immunoblotting analysis (reference value: 1). The class given is functional.
Another data set has as its target T1, Histone deacetylase 7 (Homo sapiens, UniProt Q8WUI4).
T1 sequence (Q8WUI4 whole entry): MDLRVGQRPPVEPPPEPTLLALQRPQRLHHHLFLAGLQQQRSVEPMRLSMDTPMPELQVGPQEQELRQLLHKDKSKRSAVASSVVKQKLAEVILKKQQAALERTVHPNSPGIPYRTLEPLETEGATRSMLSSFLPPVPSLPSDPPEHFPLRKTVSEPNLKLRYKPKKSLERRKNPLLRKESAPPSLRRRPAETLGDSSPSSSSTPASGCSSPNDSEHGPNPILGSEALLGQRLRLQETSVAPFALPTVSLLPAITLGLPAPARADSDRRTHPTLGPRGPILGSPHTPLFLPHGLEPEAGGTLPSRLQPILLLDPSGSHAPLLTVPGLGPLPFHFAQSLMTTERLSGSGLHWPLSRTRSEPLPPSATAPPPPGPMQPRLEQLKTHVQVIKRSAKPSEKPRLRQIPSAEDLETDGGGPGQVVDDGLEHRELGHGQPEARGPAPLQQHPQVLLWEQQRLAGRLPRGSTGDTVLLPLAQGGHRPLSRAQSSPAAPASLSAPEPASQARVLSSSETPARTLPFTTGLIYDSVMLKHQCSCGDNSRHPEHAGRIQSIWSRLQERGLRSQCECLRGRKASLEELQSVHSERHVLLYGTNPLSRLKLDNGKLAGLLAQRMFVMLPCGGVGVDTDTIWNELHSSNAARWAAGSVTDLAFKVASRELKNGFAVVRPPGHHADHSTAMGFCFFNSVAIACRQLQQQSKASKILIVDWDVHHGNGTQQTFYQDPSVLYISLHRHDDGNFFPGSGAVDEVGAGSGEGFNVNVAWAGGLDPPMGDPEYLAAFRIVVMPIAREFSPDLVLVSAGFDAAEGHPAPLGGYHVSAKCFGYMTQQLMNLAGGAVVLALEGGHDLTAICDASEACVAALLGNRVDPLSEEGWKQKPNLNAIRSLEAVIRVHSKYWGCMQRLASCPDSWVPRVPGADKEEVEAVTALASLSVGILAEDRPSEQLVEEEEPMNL
Description: Inhibition of recombinant human HDAC7 using acetylated luminogenic substrate incubated for 10 mins by ultra-glo recombinant firefly luciferase based luminescence assay.

Data set [3] in a line: Downregulation of HDAC2 protein expression in human NCI-H1975 cells assessed as fold change at 0.05 uM incubated for 24 hrs by immunoblotting analysis (reference value: 1). The class given is functional.
Data set [4] in a line: Downregulation of HDAC3 protein expression in human MDA-MB-231 cells assessed as fold change at 0.1 uM incubated for 24 hrs by immunoblotting analysis (reference value: 1). In kind it is functional.
Data set [5] can be described thus: Downregulation of HDAC4 protein expression in human NCI-H1975 cells assessed as fold change at 0.1 uM incubated for 24 hrs by immunoblotting analysis (reference value: 1). The class given is functional.
Data set [6] is described as follows: Effect on HDAC4 protein expression in human MDA-MB-231 cells assessed as fold change at 0.05 uM incubated for 24 hrs by immunoblotting analysis (reference value: 1). The class given is functional.
Data set [7] in a line: Effect on HDAC5 protein expression in human NCI-H1975 cells assessed as fold change at 0.05 uM incubated for 24 hrs by immunoblotting analysis (reference value: 1). In kind it is functional.
Data set [8] is described as follows: Effect on HDAC5 protein expression in human NCI-H1975 cells assessed as fold change at 0.1 uM incubated for 24 hrs by immunoblotting analysis (reference value: 1). In kind it is functional.
Data set [9] can be described thus: Downregulation of HDAC7 protein expression in human MDA-MB-231 cells assessed as fold change at 0.05 uM incubated for 24 hrs by immunoblotting analysis (reference value: 1). The class given is functional.
Data set [10] can be described thus: Downregulation of HDAC7 protein expression in human MDA-MB-231 cells assessed as fold change at 0.1 uM incubated for 24 hrs by immunoblotting analysis (reference value: 1). In kind it is functional.
Data set [11] can be described thus: Effect on HDAC9 protein expression in human MDA-MB-231 cells assessed as fold change at 0.05 uM incubated for 24 hrs by immunoblotting analysis (reference value: 1). The class given is functional.
Data set [12] can be described thus: Downregulation of HDAC9 protein expression in human MDA-MB-231 cells assessed as fold change at 0.1 uM incubated for 24 hrs by immunoblotting analysis (reference value: 1). The class given is functional.
Data set [13] can be described thus: Downregulation of HDAC6 protein expression in human MDA-MB-231 cells assessed as fold change at 0.05 uM incubated for 24 hrs by immunoblotting analysis (reference value: 1). In kind it is functional.
The nature of data set [14]: Effect on HDAC6 protein expression in human MDA-MB-231 cells assessed as fold change at 0.1 uM incubated for 24 hrs by immunoblotting analysis (reference value: 1). In kind it is functional.
Data set [15] in a line: Downregulation of HDAC10 protein expression in human MDA-MB-231 cells assessed as fold change at 0.05 uM incubated for 24 hrs by immunoblotting analysis (reference value: 1). The class given is functional.
A further data set concerns NCI-H1975. Description: Antitumor activity against human NCI-H1975 cells xenografted in athymic nude BALB/c mouse assessed as average tumor size at 6 mg/kg, ip administered 5 times a week for 3 weeks and measured on day 22 (reference value: 776.4 +/- 118.1 mm3). The class given is functional. As to conditions: time 22 day.
The nature of data set [16]: Toxicity in athymic nude BALB/c mouse xenografted with human NCI-H1975 cells assessed as effect on ALT level at 6 mg/kg, ip administered 5 times a week for 3 weeks and measured on day 22. The class given is organism-based. As to conditions: in vivo, 528 h, time 22 day.
A short description of data set [17]: Toxicity in athymic nude BALB/c mouse xenografted with human NCI-H1975 cells assessed as effect on AST level at 6 mg/kg, ip administered 5 times a week for 3 weeks and measured on day 22. In kind it is organism-based. As to conditions: in vivo, 528 h, time 22 day. For orientation: Xenograft models place foreign cells or tissue in a host animal.
Data set [18] is described as follows: Toxicity in athymic nude BALB/c mouse xenografted with human NCI-H1975 cells assessed as effect on BUN level at 6 mg/kg, ip administered 5 times a week for 3 weeks and measured on day 22. The class given is organism-based. The settings on record: in vivo, 528 h, time 22 day.
Data set [19] is described as follows: Toxicity in athymic nude BALB/c mouse xenografted with human NCI-H1975 cells assessed as effect on creatinine level at 6 mg/kg, ip administered 5 times a week for 3 weeks and measured on day 22. The class given is organism-based. As to conditions: in vivo, 528 h, time 22 day.
Data set [20] is described as follows: Toxicity in athymic nude BALB/c mouse xenografted with human MDA-MB-231 cells assessed as effect on ALT level in serum at 3 mg/kg, ip administered 5 times a week for 7 weeks. In kind it is organism-based. As to conditions: in vivo, 1176 h.
A short description of data set [21]: Toxicity in athymic nude BALB/c mouse xenografted with human MDA-MB-231 cells assessed as effect on AST level in serum at 3 mg/kg, ip administered 5 times a week for 7 weeks. The settings on record: in vivo, 1176 h. The class given is organism-based.

One may read the IC50 as the point on the concentration scale where inhibition reaches its midpoint. Regarding `CCOc1ccc(-c2nc(C(=O)NCc3ccc(C(=O)NO)cc3)c3[nH]c(=O)n(-c4cccnc4OC)c3n2)cn1`, the “fold change (FC)” value was found to be 2.19 in data set [1]; 1.74 in data set [2]; 0.77 in data set [3]; 0.65 in data set [4]; 0.6 in data set [5]; 1.15 in data set [6]. Moreover, the “fold change (FC)” value in data set [7] was determined as 2.38; in data set [8], 1.53; in [9] it was 0.77; in [10] it was 0.58; in data set [11], 1.08; in data set [12] it was 0.94. Besides, the “fold change (FC)” value in data set [13] was found to be 0.47; in [14] it was 1.17; in [15] it was 0.89. At Histone deacetylase 7, the IC50 is greater than 1000 nM. Also, the Activity in the data set on NCI-H1975 was 331.8 mm3; in data set [16], “Non-Toxic”; in data set [17], “Non-Toxic”; in data set [18], “Non-Toxic”; in data set [19] it was “Non-Toxic”; in data set [20], “Non-Toxic”. In addition, the Activity result in [21] is given as “Non-Toxic”.
